This note sets out measurements from ChEMBL document CHEMBL4311960, “Two optimized antimicrobial peptides with therapeutic potential for clinical antibiotic-resistant Staphylococcus aureus” (Eur J Med Chem, 2019).

Values after ≈ are worked out from the molar mass of the structure shown.

Broadly, the MIC is the smallest concentration in the dilution series that meets the test's criterion for growth inhibition. As usually defined, the HC50 is the concentration that lyses half of the red blood cells.

In series [1] the test system is Staphylococcus aureus. Put plainly: Antibacterial activity against methicillin-resistant Staphylococcus aureus ATCC 18466 assessed as reduction in bacterial growth incubated for 24 hrs by serial dilution method. In kind it is functional. As to conditions: ATCC 18466, 24 h.
The next series relates to Streptococcus mutans. Put plainly: Antibacterial activity against Streptococcus mutans UA159 assessed as reduction in bacterial growth incubated for 24 hrs by serial dilution method. As to conditions: UA159, 24 h. The series is classed as functional.
Series [2] in a line: Hemolytic activity in mouse Erythrocyte at 640 ug/ml incubated for 1 hr relative to control. The series is classed as ADME, cell-based. The following applies: mouse erythrocytes, read-out: %max.
In the next series the test system is Erythrocyte. The series is described as follows: Hemolytic activity in mouse Erythrocyte assessed as HC10 incubated for 1 hr. In kind it is ADME, cell-based.
In a further series the test system is Candida albicans. The series is described as follows: Antifungal activity against Candida albicans ATCC 5314 assessed as reduction in fungal growth incubated for 24 hrs by serial dilution method. The following applies: ATCC 5314, 24 h. The series is classed as functional.
Series [3] can be described thus: Hemolytic activity in mouse Erythrocyte assessed as HC50 incubated for 1 hr. In kind it is ADME, cell-based. The following applies: mouse erythrocytes.
A further series deals with Streptococcus sanguinis. Put plainly: Antibacterial activity against Streptococcus sanguinis ATCC 10556 assessed as reduction in bacterial growth incubated for 24 hrs by serial dilution method. The following applies: ATCC 10556, 24 h. In kind it is functional.
A short description of series [4]: Cytotoxicity against human HEK293T cells assessed as cell viability at 5 to 640 ug/ml incubated for 48 hrs by MTT assay relative to control. In kind it is cell-based, HEK-293T. As to conditions: read-out: Activity.
Series [5] relates to Staphylococcus aureus. Put plainly: Antibacterial activity against Staphylococcus aureus ATCC 25923 assessed as reduction in bacterial growth incubated for 24 hrs by serial dilution method. In kind it is functional. The following applies: ATCC 25923, 24 h.
Series [6] has as its system Staphylococcus aureus. Put plainly: Antibacterial activity against methicillin-resistant Staphylococcus aureus ATCC 18908 assessed as reduction in bacterial growth incubated for 24 hrs by serial dilution method. The series is classed as functional. The following applies: ATCC 18908, 24 h.
In series [7] the test system is Staphylococcus aureus. Put plainly: Antibacterial activity against methicillin-resistant Staphylococcus aureus ATCC 18475 assessed as reduction in bacterial growth incubated for 24 hrs by serial dilution method. In kind it is functional. The following applies: ATCC 18475, 24 h.
In series [8] the test system is Staphylococcus aureus. The series is described as follows: Antibacterial activity against methicillin-resistant Staphylococcus aureus ATCC 18878 assessed as reduction in bacterial growth incubated for 24 hrs by serial dilution method. The series is classed as functional. The following applies: ATCC 18878, 24 h.
Series [9] relates to Staphylococcus aureus. Put plainly: Antibacterial activity against methicillin-resistant Staphylococcus aureus ATCC 19498 assessed as reduction in bacterial growth incubated for 24 hrs by serial dilution method. The series is classed as functional. The following applies: ATCC 19498, 24 h.
Series [10] deals with Staphylococcus aureus. The series is described as follows: Antibacterial activity against methicillin-resistant Staphylococcus aureus ATCC 19916 assessed as reduction in bacterial growth incubated for 24 hrs by serial dilution method. The series is classed as functional. The following applies: ATCC 19916, 24 h.
In series [11] the test system is Staphylococcus aureus. The series is described as follows: Antibacterial activity against methicillin-resistant Staphylococcus aureus ATCC 19047 assessed as reduction in bacterial growth incubated for 24 hrs by serial dilution method. In kind it is functional. As to conditions: ATCC 19047, 24 h.
Series [12] deals with Staphylococcus aureus. Put plainly: Antibacterial activity against methicillin-resistant Staphylococcus aureus ATCC 19167 assessed as reduction in bacterial growth incubated for 24 hrs by serial dilution method. The series is classed as functional. As to conditions: ATCC 19167, 24 h.
In series [13] the test system is Staphylococcus aureus. The series is described as follows: Antibacterial activity against Staphylococcus aureus ATCC 6538 assessed as reduction in bacterial growth incubated for 24 hrs by serial dilution method. The series is classed as functional. The following applies: ATCC 6538, 24 h.
Series [14] concerns Staphylococcus aureus. The series is described as follows: Antibacterial activity against methicillin-resistant Staphylococcus aureus ATCC 19423 assessed as reduction in bacterial growth incubated for 24 hrs by serial dilution method. In kind it is functional. As to conditions: ATCC 19423, 24 h.
The subject of series [15] is Staphylococcus aureus. Put plainly: Antibacterial activity against Staphylococcus aureus ATCC 29213 assessed as reduction in bacterial growth incubated for 24 hrs by serial dilution method. In kind it is functional. The following applies: ATCC 29213, 24 h.
Series [16] has as its system Staphylococcus aureus. Put plainly: Ratio of MIC for resistant Staphylococcus aureus ATCC 25923 for 15 days to MIC for Staphylococcus aureus ATCC 25923 for 24 hrs. The series is classed as functional.
The subject of series [17] is Staphylococcus aureus. Put plainly: Antibacterial activity against methicillin-resistant Staphylococcus aureus ATCC 18858 assessed as reduction in bacterial growth incubated for 24 hrs by serial dilution method. In kind it is functional. The following applies: ATCC 18858, 24 h.
In series [18] the test system is Staphylococcus aureus. Put plainly: Antibacterial activity against methicillin-resistant Staphylococcus aureus ATCC 18567 assessed as reduction in bacterial growth incubated for 24 hrs by serial dilution method. In kind it is functional. As to conditions: ATCC 18567, 24 h.
Series [19] has as its system Staphylococcus aureus. Put plainly: Antibacterial activity against methicillin-resistant Staphylococcus aureus ATCC 19952 assessed as reduction in bacterial growth incubated for 24 hrs by serial dilution method. The series is classed as functional. As to conditions: ATCC 19952, 24 h.
For series [20], the system named is Staphylococcus aureus. Put plainly: Antibacterial activity against methicillin-resistant Staphylococcus aureus ATCC 19102 assessed as reduction in bacterial growth incubated for 24 hrs by serial dilution method. In kind it is functional. The following applies: ATCC 19102, 24 h.
Series [21] deals with Staphylococcus aureus. The series is described as follows: Antibacterial activity against methicillin-resistant Staphylococcus aureus ATCC 19900 assessed as reduction in bacterial growth incubated for 24 hrs by serial dilution method. As to conditions: ATCC 19900, 24 h. The series is classed as functional.
Series [22] has as its system Staphylococcus aureus. The series is described as follows: Antibacterial activity against Staphylococcus aureus ATCC 29213 assessed as reduction in bacterial growth at MIC measured after 15 passages. The series is classed as functional.
Series [23] has as its system Staphylococcus aureus. The series is described as follows: Antibacterial activity against Staphylococcus aureus ATCC 8325.4 assessed as reduction in bacterial growth incubated for 24 hrs by serial dilution method. In kind it is functional. As to conditions: ATCC 8325.4, 24 h.
Series [24] has as its system Staphylococcus aureus. Put plainly: Antibacterial activity against Staphylococcus aureus ATCC 25923 assessed as reduction in bacterial growth at MIC measured after 15 passages. The series is classed as functional.
For series [25], the system named is Staphylococcus aureus. The series is described as follows: Ratio of MIC for resistant Staphylococcus aureus ATCC 29213 for 15 days to MIC for Staphylococcus aureus ATCC 29213 for 24 hrs. In kind it is functional.
Series [26] has as its system Staphylococcus aureus. The series is described as follows: Antibacterial activity against methicillin-resistant Staphylococcus aureus ATCC 19041 assessed as reduction in bacterial growth incubated for 24 hrs by serial dilution method. The series is classed as functional. As to conditions: ATCC 19041, 24 h.
The test system of series [27] is Staphylococcus aureus. Put plainly: Antibacterial activity against methicillin-resistant Staphylococcus aureus ATCC 19494 assessed as reduction in bacterial growth incubated for 24 hrs by serial dilution method. The series is classed as functional. The following applies: ATCC 19494, 24 h.
Series [28] is described as follows: Cytotoxicity against human HEK293T cells assessed as cell viability at 640 ug/ml incubated for 48 hrs by MTT assay relative to control. The following applies: read-out: Activity. The series is classed as cell-based, HEK-293T. (In general: Tetrazolium dyes change colour on reduction, which living cells bring about.)

For H-YIRKIRRFFKKLNKNLKK-NH2, the minimum inhibitory concentration (MIC) in the series on Staphylococcus aureus [1] (read-out: MIC) was less than 64 µg/mL; in the series on Streptococcus mutans (read-out: MIC) it was less than 64 µg/mL; in the series on Candida albicans (read-out: MIC) it was less than 64 µg/mL; with Streptococcus sanguinis it was more than 64 µg/mL; in the series on Staphylococcus aureus [5] it was more than 64 µg/mL. Further, the hemolysis at 1 h, 640 ug/ml in [2] stood at 9.86%. Besides, in the series with Erythrocyte, the HC10 is more than 640 µg/mL. For the same molecule, the HC50 at 1 h in series [3] was more than 640 µg/mL. Besides, the viability at 48 h in series [4] was in the range of 70 to 80%.

With H-WYERLINRKFKWLKGRLSKK-NH2, the minimal inhibitory concentration (MIC) with Staphylococcus aureus [1] (read-out: MIC) was less than 64 µg/mL; with Streptococcus mutans, more than 64 µg/mL; in the series with Candida albicans (read-out: MIC), less than 64 µg/mL; with Streptococcus sanguinis (read-out: MIC), less than 64 µg/mL; with Staphylococcus aureus [5], more than 64 µg/mL. In addition, in [2], the hemolysis at 1 h, 640 ug/ml came out at 17.3%. The HC10 with Erythrocyte is 178.82 µg/mL. Moreover, the concentration for 50% haemolysis (HC50) at 1 h in series [3] was more than 640 µg/mL. Besides, the viability at 48 h in series [4] was 70 to 80%.

As for `Cc1onc(-c2ccccc2)c1C(=O)N[C@@H]1C(=O)N2[C@@H]1SC(C)(C)[C@@H]2C(=O)O` [OXACILLIN], the MIC in the series on Staphylococcus aureus [6], in the series on Staphylococcus aureus [7], in the series with Staphylococcus aureus [8], in the series with Staphylococcus aureus [1] (read-out: MIC), in the series on Staphylococcus aureus [9] and in the series on Staphylococcus aureus [10] was more than 1200 µg/mL each time. Besides, the MIC was more than 1200 µg/mL in the series with Staphylococcus aureus [11]; more than 1200 µg/mL in the series with Staphylococcus aureus [12]; 0.5 µg/mL (≈ 1.25 µM) with Staphylococcus aureus [13]; more than 1200 µg/mL in the series with Staphylococcus aureus [14]; 1 µg/mL (≈ 2.49 µM) in the series on Staphylococcus aureus [15]; more than 1200 µg/mL with Staphylococcus aureus [17]. Further, the minimum inhibitory concentration (MIC) in the series on Staphylococcus aureus [18] is more than 1200 µg/mL; with Staphylococcus aureus [19] it was more than 1200 µg/mL; in the series on Staphylococcus aureus [20], more than 1200 µg/mL; in the series on Staphylococcus aureus [21], more than 1200 µg/mL; with Staphylococcus aureus [23] it was 0.5 µg/mL (≈ 1.25 µM); with Staphylococcus aureus [26], more than 1200 µg/mL. For the same molecule, the results for the MIC in the series with Staphylococcus aureus [27] and with Staphylococcus aureus [5] (read-out: MIC) were more than 1200 µg/mL and 0.5 µg/mL (≈ 1.25 µM), respectively. Moreover, the Ratio with Staphylococcus aureus [16] and in the series on Staphylococcus aureus [25] was 8 each time. For the same molecule, the “fold change (FC)” value in the series on Staphylococcus aureus [22] and in the series with Staphylococcus aureus [24] was 8 in each case.

As to `Clc1ccc(COC(Cn2ccnc2)c2ccc(Cl)cc2Cl)cc1` (stereo not given) [ECONAZOLE], the MIC in the series on Candida albicans (read-out: MIC) turned out to be 4 µg/mL (≈ 10.5 µM).

On to H-SYEIKINRHFKTLKKNLKKK-NH2, for which the minimum inhibitory concentration (MIC) in the series with Staphylococcus aureus [1] is more than 64 µg/mL; in the series with Streptococcus mutans (read-out: MIC) it was less than 64 µg/mL; with Candida albicans it was more than 64 µg/mL; with Streptococcus sanguinis it was more than 64 µg/mL; in the series on Staphylococcus aureus [5] (read-out: MIC) it was less than 64 µg/mL. Also, in series [2], the hemolysis at 1 h, 640 ug/ml worked out at 6.78%. Besides, the HC10 in the series on Erythrocyte is more than 640 µg/mL. Besides, the concentration for 50% haemolysis (HC50) at 1 h in series [3] is more than 640 µg/mL. Besides, the viability at 48 h in series [4] was in the range of 70 to 80%.

In the case of H-VWKRWVVRKWKWVKKKVKKK-NH2, the MIC in the series with Staphylococcus aureus [1] (read-out: MIC) was less than 64 µg/mL; in the series with Streptococcus mutans (read-out: MIC) it was less than 64 µg/mL; in the series on Candida albicans (read-out: MIC), 64 µg/mL; in the series on Streptococcus sanguinis it was more than 64 µg/mL; in the series on Staphylococcus aureus [5] (read-out: MIC), less than 64 µg/mL. Moreover, in series [2], the hemolysis at 1 h, 640 ug/ml was 31%. For the same molecule, in the series with Erythrocyte, the HC10 turned out to be 57.24 µg/mL. The viability at 48 h, 640 ug/ml in series [28] came out at 58.9%. In addition, the HC50 at 1 h in series [3] is more than 640 µg/mL.

Regarding H-YEIKINRHFKTLKKNLKK-NH2, the MIC was less than 64 µg/mL in the series with Staphylococcus aureus [1] (read-out: MIC); more than 64 µg/mL in the series on Streptococcus mutans; less than 64 µg/mL in the series on Candida albicans (read-out: MIC); more than 64 µg/mL with Streptococcus sanguinis; less than 64 µg/mL in the series with Staphylococcus aureus [5] (read-out: MIC). Besides, the hemolysis at 1 h, 640 ug/ml in [2] stood at 7.94%. Also, the HC10 with Erythrocyte is more than 640 µg/mL. In addition, the 50% haemolytic concentration (HC50) at 1 h in [3] was more than 640 µg/mL. Moreover, the viability at 48 h in series [4] was 70 to 80%.
